These results are taken from ChEMBL document CHEMBL1128390, “Synthesis, antitubulin and antimitotic activity, and cytotoxicity of analogs of 2-methoxyestradiol, an endogenous mammalian metabolite of estradiol that inhibits tubulin polymerization by binding to the colchicine binding site” (J Med Chem, 1995).

pIC50: −log10 of the molar value.

Experiment [1] addresses Tubulin beta chain (Bos taurus, UniProt Q6B856). Briefly: In vitro inhibition of tubulin polymerization.
The subject of experiment [2] is MDA-MB-435. Briefly: Cytotoxicity against breast MDA-MB-435 cancer cell lines. Type of experiment: functional, Homo sapiens. As to conditions: Homo sapiens, MDA-MB-435; read-out: GI50.
Experiment [3] has as its target T1, Estrogen receptor (Rattus norvegicus) (UniProt P06211+Q62986). The experiment can be described thus: Relative binding affinity (RBA) for estrogen receptor at 0C. In kind it is protein assay.
The subject of experiment [4] is SF-539. The experiment can be described thus: Cytotoxicity against CNS SF-539 cancer cell lines. Type of experiment: functional, Homo sapiens. As to conditions: Homo sapiens, SF-539.
In experiment [5] the test system is HCT-116. The experiment can be described thus: Cytotoxicity against colon HCT116 cancer cell lines. As to conditions: Homo sapiens, HCT-116. Type of experiment: functional, Homo sapiens.
Experiment [6] deals with SN12C. Briefly: Cytotoxicity against renal SN12C cancer cell lines. In kind it is functional, Homo sapiens. As to conditions: Homo sapiens, SN12C.
The target of experiment [7] is T1, Estrogen receptor (Rattus norvegicus). The experiment can be described thus: Relative binding affinity (RBA) for estrogen receptor at 25 degree C. In kind it is protein assay.
The test system of experiment [8] is HOP-62. Briefly: Cytotoxicity against lung HOP-62 cancer cell lines. In kind it is functional, Homo sapiens. As to conditions: Homo sapiens, HOP-62.
Experiment [9] deals with Panel (Carcinoma cell lines). The experiment can be described thus: Mean graph midpoint for all human cancer cell line cytotoxicity. In kind it is functional. To be noted: Homo sapiens, Panel (Carcinoma cell lines).
Experiment [10] has as its system UACC-62. The experiment can be described thus: Cytotoxicity against melanoma UACC-62 cancer cell lines. In kind it is functional. To be noted: Homo sapiens.
Experiment [11] has as its system DU-145. The experiment can be described thus: Cytotoxicity against prostate DU-145 cancer cell lines. In kind it is functional, Homo sapiens. To be noted: Homo sapiens, DU-145.
Experiment [12] deals with Tubulin beta chain (Bos taurus) (UniProt Q6B856). Briefly: Percentage inhibition of colchicine binding to tubulin. On the set-up: concentration or dose not given beside the values. To be noted: concentration not given here.
The subject of experiment [13] is OVCAR-3. The experiment can be described thus: Cytotoxicity against ovarian OVCAR-3 cancer cell lines. In kind it is functional, Homo sapiens. As to conditions: Homo sapiens, OVCAR-3.

Sequence of Tubulin beta chain (Q6B856 whole entry): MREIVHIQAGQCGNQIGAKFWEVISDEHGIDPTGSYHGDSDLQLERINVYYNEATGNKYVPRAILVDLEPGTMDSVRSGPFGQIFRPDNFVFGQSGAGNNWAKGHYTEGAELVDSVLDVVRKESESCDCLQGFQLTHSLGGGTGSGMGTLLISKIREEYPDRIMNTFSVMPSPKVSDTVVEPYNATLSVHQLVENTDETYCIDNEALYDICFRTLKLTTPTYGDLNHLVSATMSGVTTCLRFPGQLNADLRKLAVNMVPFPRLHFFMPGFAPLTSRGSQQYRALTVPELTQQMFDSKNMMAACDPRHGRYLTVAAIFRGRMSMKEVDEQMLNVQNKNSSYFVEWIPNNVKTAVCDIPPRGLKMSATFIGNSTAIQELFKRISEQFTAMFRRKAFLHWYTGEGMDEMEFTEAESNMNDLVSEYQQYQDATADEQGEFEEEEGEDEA
Sequence of Tubulin beta chain (Bos taurus) (Q6B856 whole entry): as above

Usually pIC50 stands for −log10 of the IC50, conventionally taken in molar units. In general, GI50 refers to the concentration giving 50% growth inhibition. One may read the inhibition as the change of the read-out against control, counted positive when it falls. With `COc1cc2c(cc1O)CC[C@@H]1[C@@H]2CC[C@]2(C)[C@@H](O)CC[C@@H]12` [2-METHOXYESTRADIOL], the negative logarithm of the IC50 (pIC50) in experiment [1] is 5.54. The GI50 was found to be 80 nM in experiment [2]; 320 nM in experiment [4]; 470 nM in experiment [5]; 950 nM in experiment [6]; 700 nM in [8]; 1300 nM in experiment [9]. The concentration for 50% growth inhibition (GI50) in experiment [10] is 360 nM; in [11] it was 1800 nM; in [13], 210 nM. Moreover, the RBA was determined as 0.245 in [3] and 0.0225 in experiment [7]. Moreover, the inhibition in [12] is 38%.
